# Test results taken from PMC7156458, “Synthetic biology based construction of biological activity-related library of fungal decalin-containing diterpenoid pyrones” (Nature Communications, 2020).
# Target: Aβ42 (Homo sapiens, UniProt P05067)
# Assay: Th-T (thioflavin-T) assay of Aβ42 aggregation
# Assay type: biochemical
# Details: for Th-T fluorescence of Aβ42 with compound, mean of three wells (Fig. 7a source data): concentration 50, unit not given
# Sequence of Aβ42 (P05067 672-713): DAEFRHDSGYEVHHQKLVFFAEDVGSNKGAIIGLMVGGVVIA
smiles,measurement,setting,value
C=C1CC[C@@H]2[C@](C)(CC[C@H]3O[C@H](C=C(C)C)C[C@@]23C)[C@@H]1Cc1c(OC)oc(CO)c(C(=O)OC)c1=O [Compound 21],"Th-T fluorescence of Aβ42 with compound, mean of three wells (Fig. 7a source data)",time-course reading M143,0.5052
same,"Th-T fluorescence of Aβ42 with compound, mean of three wells (Fig. 7a source data)",time-course reading M144,0.5053
same,"Th-T fluorescence of Aβ42 with compound, mean of three wells (Fig. 7a source data)",time-course reading M145,0.5045
same,"Th-T fluorescence of Aβ42 (sheet Fig. 7a), mean of three wells","head suffix _10 (concentration 10), reading M63",0.5289
same,"Th-T fluorescence of Aβ42 (sheet Fig. 7a), mean of three wells","head suffix _10 (concentration 10), reading M64",0.6173
same,"Th-T fluorescence of Aβ42 (sheet Fig. 7a), mean of three wells","head suffix _10 (concentration 10), reading M65",0.6561
same,"Th-T fluorescence of Aβ42 (sheet Fig. 7a), mean of three wells","head suffix _10 (concentration 10), reading M66",0.6931
same,"Th-T fluorescence of Aβ42 (sheet Fig. 7a), mean of three wells","head suffix _10 (concentration 10), reading M67",0.7435
same,"Th-T fluorescence of Aβ42 (sheet Fig. 7a), mean of three wells","head suffix _10 (concentration 10), reading M68",0.7523
same,"Th-T fluorescence of Aβ42 (sheet Fig. 7a), mean of three wells","head suffix _10 (concentration 10), reading M69",0.7892
same,"Th-T fluorescence of Aβ42 (sheet Fig. 7a), mean of three wells","head suffix _10 (concentration 10), reading M70",0.7946
same,"Th-T fluorescence of Aβ42 (sheet Fig. 7a), mean of three wells","head suffix _10 (concentration 10), reading M71",0.8033
same,"Th-T fluorescence of Aβ42 (sheet Fig. 7a), mean of three wells","head suffix _10 (concentration 10), reading M72",0.7933
same,"Th-T fluorescence of Aβ42 (sheet Fig. 7a), mean of three wells","head suffix _10 (concentration 10), reading M73",0.8223
same,"Th-T fluorescence of Aβ42 (sheet Fig. 7a), mean of three wells","head suffix _10 (concentration 10), reading M74",0.8738
same,"Th-T fluorescence of Aβ42 (sheet Fig. 7a), mean of three wells","head suffix _10 (concentration 10), reading M75",0.8711
same,"Th-T fluorescence of Aβ42 (sheet Fig. 7a), mean of three wells","head suffix _10 (concentration 10), reading M76",0.921
same,"Th-T fluorescence of Aβ42 (sheet Fig. 7a), mean of three wells","head suffix _10 (concentration 10), reading M77",0.9791
same,"Th-T fluorescence of Aβ42 (sheet Fig. 7a), mean of three wells","head suffix _10 (concentration 10), reading M78",1.0381
same,"Th-T fluorescence of Aβ42 (sheet Fig. 7a), mean of three wells","head suffix _10 (concentration 10), reading M79",1.098
same,"Th-T fluorescence of Aβ42 (sheet Fig. 7a), mean of three wells","head suffix _10 (concentration 10), reading M80",1.155
same,"Th-T fluorescence of Aβ42 (sheet Fig. 7a), mean of three wells","head suffix _10 (concentration 10), reading M81",1.227
same,"Th-T fluorescence of Aβ42 (sheet Fig. 7a), mean of three wells","head suffix _10 (concentration 10), reading M82",1.285
same,"Th-T fluorescence of Aβ42 (sheet Fig. 7a), mean of three wells","head suffix _10 (concentration 10), reading M83",1.378
same,"Th-T fluorescence of Aβ42 (sheet Fig. 7a), mean of three wells","head suffix _10 (concentration 10), reading M84",1.428
same,"Th-T fluorescence of Aβ42 (sheet Fig. 7a), mean of three wells","head suffix _20 (concentration 20), reading M63",0.2431
same,"Th-T fluorescence of Aβ42 (sheet Fig. 7a), mean of three wells","head suffix _20 (concentration 20), reading M64",0.2464
same,"Th-T fluorescence of Aβ42 (sheet Fig. 7a), mean of three wells","head suffix _20 (concentration 20), reading M65",0.2511
same,"Th-T fluorescence of Aβ42 (sheet Fig. 7a), mean of three wells","head suffix _20 (concentration 20), reading M66",0.2535
same,"Th-T fluorescence of Aβ42 (sheet Fig. 7a), mean of three wells","head suffix _20 (concentration 20), reading M67",0.2562
same,"Th-T fluorescence of Aβ42 (sheet Fig. 7a), mean of three wells","head suffix _20 (concentration 20), reading M68",0.2616
same,"Th-T fluorescence of Aβ42 (sheet Fig. 7a), mean of three wells","head suffix _20 (concentration 20), reading M69",0.2677
same,"Th-T fluorescence of Aβ42 (sheet Fig. 7a), mean of three wells","head suffix _20 (concentration 20), reading M70",0.2739
same,"Th-T fluorescence of Aβ42 (sheet Fig. 7a), mean of three wells","head suffix _20 (concentration 20), reading M71",0.2831
same,"Th-T fluorescence of Aβ42 (sheet Fig. 7a), mean of three wells","head suffix _20 (concentration 20), reading M72",0.2882
same,"Th-T fluorescence of Aβ42 (sheet Fig. 7a), mean of three wells","head suffix _20 (concentration 20), reading M73",0.2974
same,"Th-T fluorescence of Aβ42 (sheet Fig. 7a), mean of three wells","head suffix _20 (concentration 20), reading M74",0.3106
same,"Th-T fluorescence of Aβ42 (sheet Fig. 7a), mean of three wells","head suffix _20 (concentration 20), reading M75",0.3227
same,"Th-T fluorescence of Aβ42 (sheet Fig. 7a), mean of three wells","head suffix _20 (concentration 20), reading M76",0.3296
same,"Th-T fluorescence of Aβ42 (sheet Fig. 7a), mean of three wells","head suffix _20 (concentration 20), reading M77",0.3505
same,"Th-T fluorescence of Aβ42 (sheet Fig. 7a), mean of three wells","head suffix _20 (concentration 20), reading M78",0.3679
same,"Th-T fluorescence of Aβ42 (sheet Fig. 7a), mean of three wells","head suffix _20 (concentration 20), reading M79",0.3859
same,"Th-T fluorescence of Aβ42 (sheet Fig. 7a), mean of three wells","head suffix _20 (concentration 20), reading M80",0.4085
same,"Th-T fluorescence of Aβ42 (sheet Fig. 7a), mean of three wells","head suffix _20 (concentration 20), reading M81",0.4348
same,"Th-T fluorescence of Aβ42 (sheet Fig. 7a), mean of three wells","head suffix _20 (concentration 20), reading M82",0.4734
same,"Th-T fluorescence of Aβ42 (sheet Fig. 7a), mean of three wells","head suffix _20 (concentration 20), reading M83",0.5074
same,"Th-T fluorescence of Aβ42 (sheet Fig. 7a), mean of three wells","head suffix _20 (concentration 20), reading M84",0.5384
same,"Th-T fluorescence of Aβ42 (sheet Fig. 7a), mean of three wells","head suffix _50 (concentration 50), reading M63",0.2314
same,"Th-T fluorescence of Aβ42 (sheet Fig. 7a), mean of three wells","head suffix _50 (concentration 50), reading M64",0.2365
same,"Th-T fluorescence of Aβ42 (sheet Fig. 7a), mean of three wells","head suffix _50 (concentration 50), reading M65",0.2406
same,"Th-T fluorescence of Aβ42 (sheet Fig. 7a), mean of three wells","head suffix _50 (concentration 50), reading M66",0.2402
same,"Th-T fluorescence of Aβ42 (sheet Fig. 7a), mean of three wells","head suffix _50 (concentration 50), reading M67",0.2439
same,"Th-T fluorescence of Aβ42 (sheet Fig. 7a), mean of three wells","head suffix _50 (concentration 50), reading M68",0.2485
same,"Th-T fluorescence of Aβ42 (sheet Fig. 7a), mean of three wells","head suffix _50 (concentration 50), reading M69",0.2533
same,"Th-T fluorescence of Aβ42 (sheet Fig. 7a), mean of three wells","head suffix _50 (concentration 50), reading M70",0.2583
same,"Th-T fluorescence of Aβ42 (sheet Fig. 7a), mean of three wells","head suffix _50 (concentration 50), reading M71",0.2613
same,"Th-T fluorescence of Aβ42 (sheet Fig. 7a), mean of three wells","head suffix _50 (concentration 50), reading M72",0.2693
